# Measurements reported in patent publication US9828588B2, “Methods and compositions for producing active vitamin K-dependent proteins” (The University of North Carolina at Chapel Hill, priority 2005, dated 2017).
# Tested on: P450 2C9
# Assay: Average warfarin maintenance dose in patients by P450 2C9 genotype
# Type: in vivo, human
# Conditions: patients heterozygous for P450 2C9*3, n=8
# Excerpt: Subjects were obtained from the UNC Coagulation Clinic in the Ambulatory Care Center. Informed consent was obtained by a trained genetic counselor. Subjects not fluent in English were excluded because of the lack of translators and the requirement for consent.
# The difference of average dose between different genotypes was compared by analysis of variance (ANOVA) using SAS version 8.0 (SAS, Inc., Cary, N.C.). A two-sided p value less than 0.05 was considered significant.
# Each marker was first analyzed independently.
# SAS was used first to do a repeated procedure in which a series of factors (race, gender, smoking history, hepatic diseases, SNPs at cytochrome […] gene, etc.) were examined to identify factors, excluding VKOR SNPs, which might affect dosage.
structure (smiles),measurement,value
CC(=O)CC(c1ccccc1)c1c(O)c2ccccc2oc1=O (stereo not shown) [warfarin],average warfarin dose,22.4±4.34 mg per week
